Experimental data taken from patent US20150031675A1, “DIAZABICYCLO[3.3.1]NONANES, METHODS OF SYNTHESIS, AND USES THEREOF” (Targacept, Inc., priority 2012, published 2015).
Like-named read-outs stand apart in the source and are kept apart here.

How the values were obtained:
[1] = biological target: T1, Human α4β2 nAChR (Homo sapiens, UniProt P17787+P43681); assay: Radioligand binding ([3H]nicotine) at α4β2 nAChR, membranes from SH-EP1/human α4β2 clonal cells
T1 construct: expressed in transfected cells; host or cells: SH-EP1 clonal cells expressing human α4β2
T1 sequence (P43681 29-627 limits assumed): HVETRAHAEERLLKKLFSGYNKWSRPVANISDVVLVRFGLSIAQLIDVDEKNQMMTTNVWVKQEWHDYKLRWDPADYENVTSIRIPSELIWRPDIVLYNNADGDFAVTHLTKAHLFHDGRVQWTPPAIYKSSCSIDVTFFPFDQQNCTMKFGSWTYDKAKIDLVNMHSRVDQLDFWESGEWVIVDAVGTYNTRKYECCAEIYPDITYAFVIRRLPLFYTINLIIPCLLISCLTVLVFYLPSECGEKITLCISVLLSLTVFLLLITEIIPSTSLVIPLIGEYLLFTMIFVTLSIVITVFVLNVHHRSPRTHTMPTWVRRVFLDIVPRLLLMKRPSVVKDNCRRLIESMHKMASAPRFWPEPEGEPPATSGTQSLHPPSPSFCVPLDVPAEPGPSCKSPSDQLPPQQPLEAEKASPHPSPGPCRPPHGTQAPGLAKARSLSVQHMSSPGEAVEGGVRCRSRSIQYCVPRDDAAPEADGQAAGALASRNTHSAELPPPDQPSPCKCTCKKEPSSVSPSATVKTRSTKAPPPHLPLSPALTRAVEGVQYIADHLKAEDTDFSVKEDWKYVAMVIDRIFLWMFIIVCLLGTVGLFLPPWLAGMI
T1 sequence (P17787 26-502): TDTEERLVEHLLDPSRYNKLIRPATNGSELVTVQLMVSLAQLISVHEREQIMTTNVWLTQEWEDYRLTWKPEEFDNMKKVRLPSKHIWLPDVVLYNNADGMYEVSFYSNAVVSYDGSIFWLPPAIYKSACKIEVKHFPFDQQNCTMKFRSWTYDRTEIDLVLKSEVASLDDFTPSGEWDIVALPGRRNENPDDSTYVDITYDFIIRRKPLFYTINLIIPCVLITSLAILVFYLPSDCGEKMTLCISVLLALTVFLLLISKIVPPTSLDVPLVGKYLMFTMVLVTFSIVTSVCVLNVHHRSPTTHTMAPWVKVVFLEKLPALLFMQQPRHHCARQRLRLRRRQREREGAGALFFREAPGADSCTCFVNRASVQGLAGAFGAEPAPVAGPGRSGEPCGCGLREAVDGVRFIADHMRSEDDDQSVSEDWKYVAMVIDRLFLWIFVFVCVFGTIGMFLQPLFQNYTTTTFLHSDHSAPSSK
Protocol: Preparation of Membranes from SH-EP1/Human α4β2 Clonal Cells:
Cell pellets from 40 150 mm culture dishes were pooled, and homogenized by Polytron (Kinematica GmbH, Switzerland) in 20 milliliters of ice-cold preparative buffer. The homogenate was centrifuged at 48,000 g for 20 minutes at 4° C. The resulting pellet was re-suspended in 20 mL of ice-cold preparative buffer and stored at −20° C.
On the day of the assay, the frozen membranes were thawed and spun at 48,000×g for 20 min. The supernatant was decanted and discarded. The pellet was resuspended in Dulbecco's phosphate buffered saline (PBS, Life Technologies) pH 7.4 and homogenized with the Polytron for 6 seconds. Protein concentrations were determined using a Pierce BCA Protein Assay Kit, with bovine serum albumin as the standard (Pierce Chemical Company, Rockford, Ill.).
Incubation was terminated by rapid filtration on a multi-manifold tissue harvester (Brandel, Gaithersburg, Md.) using GF/B filters presoaked in 0.33% polyethyleneimine (w/v) to reduce non-specific binding. Tissue was rinsed 3 times in PBS, pH 7.4. Scintillation fluid was added to filters containing the washed tissue and allowed to equilibrate. Filters were then counted to determine radioactivity bound to the membranes by liquid scintillation counting (2200CA Tri-Carb LSC, Packard Instruments, 50% efficiency or Wallac Trilux 1450 MicroBeta, 40% efficiency, Perkin Elmer).
Data were expressed as disintegrations per minute (DPMs). Within each assay, each point had 2-3 replicates.

[2] = biological target: Human α7 nAChR (UniProt P36544); assay: Radioligand binding ([3H]MLA) at α7 nAChR
[3] = competition with 5 nM [3H]MLA; Ki by Cheng-Prusoff; read-out: Human α7 Ki
[4] = read-out: Human α7 Ki; competition with 5 nM [3H]MLA; Ki by Cheng-Prusoff

SMILES	Ki [1] [nM]	Ki [2, 3] [nM]	Ki ([1]; read-out: Human α4β2 Ki) [nM]	Ki [2, 4] [nM]
c1cncc(N2CC3CC(C2)CN(C2CN4CCC2CC4)C3)c1 (centres unmarked)	42	510	–	–
c1cncc(N2CC3CC(C2)CN(C2CCCNC2)C3)c1 (centres unmarked)	–	–	0.79	62
c1cncc(N2CC3CC(C2)CN(C2CCNCC2)C3)c1	14	790	–	–
c1cncc(N2CC3CC(C2)CN(C2CCNC2)C3)c1 (centres unmarked)	–	–	0.16	24
c1cncc(N2CC3CC(C2)CN(C2CCCNCC2)C3)c1 (centres unmarked)	–	–	0.45	20
c1cncc(N2CC3CC(C2)CN(C2CNC2)C3)c1	5.8	550	–	–
CN1CCC(N2CC3CC(CN(c4cccnc4)C3)C2)C1 (centres unmarked)	11	790	–	–
